# Experimental data taken from patent US20230285380A1, “DUAL TREATMENT OF MIGRAINE” (priority 2021, published 2023).
# What was measured:
# [1] = BHV3000-305 study: adverse events and liver safety on double-blind treatment
# [2] = system: patients with episodic and chronic migraine; assay: BHV3000-305 Phase 2/3 randomized, double-blind, placebo-controlled study of rimegepant in migraine prevention (NCT03732638): efficacy; assay type: in vivo, human
# Method: Clinical Trial—BHV3000-305: A Phase ⅔, Randomized, Double-blind, Placebo-controlled Study to Evaluate the Efficacy and Safety of Rimegepant in Migraine Prevention (ClinicalTrials.gov Identifier: NCT03732638).
# A phase ⅔ clinical study was conducted with 1629 participants, as follows.
# The purpose of this is study is to compare the efficacy of BHV-3000 (rimegepant) to placebo as a preventive treatment for migraine, as measured by the reduction in the number of migraine days per month.
# Study Design • Study Type: Interventional (Clinical Trial) • Actual Enrollment: 1629 participants • Allocation: Randomized • Intervention Model: Parallel Assignment • Masking: Triple (Participant, Care Provider, Investigator) • Primary Purpose: Prevention • Official Title: A Phase ⅔, Randomized, Double-blind, Placebo-controlled Study to Evaluate the Efficacy and Safety of Rimegepant in Migraine Prevention • Actual Study Start Date: Nov. 14, 2018 • Actual Primary Completion Date: Dec. 10, 2019 • Estimated Study Completion Jan. 30, 2021 • Date:
# Primary Outcome Measures: • 1. Change from baseline in mean number of migraine days per month [Time Frame: Mean number of migraine days per month as assessed over 3 months (12 weeks)] Change from baseline in mean number of migraine days per month as measured over the 12-week double-blind phase of the study.
# Secondary Outcome Measures: • 1. Achievement of at least a 50% reduction from baseline in mean number of moderate to severe monthly migraine days. [Time Frame: baseline to end of Week 12] Achievement of at least a 50% reduction from baseline in mean number of moderate to severe monthly migraine days over course of the double-blind treatment phase. • 2. The mean number of rescue medication days per month. [Time Frame: baseline to end of week 12 as measure per month] The mean number of rescue medication days per month over the course of the double-blind, treatment phase. Rescue medications include the rescue medications defined in this protocol. • 3. Adverse events. [Time Frame: baseline to end of Week 12] Adverse events that occur in at least 5% of treated subjects; the frequency of unique subjects with serious adverse events, adverse events leading to discontinuation and clinically significant laboratory abnormalities, as reported on case report forms. • 4. The frequency of AST or ALT elevations. [Time Frame: baseline to end of Week 12] The frequency of AST or ALT elevations >3×ULN, concurrently with bilirubin elevations >2× ULN, will be assessed by tabulating the number of unique subjects with this pairing of events. • 5. The frequency of hepatic-related adverse events and hepatic-related treatment. [Time Frame: baseline to end of Week 12] The frequency of hepatic-related adverse events and hepatic-related treatment discontinuations will be tabulated from case report forms and will be based on unique subjects reporting such events. • 6. The mean change from baseline in the MSQ role function [Time Frame: baseline to end of Week 12] The mean change from baseline in the MSQ role function—restrictive domain score at Week 12 of the double-blind treatment phase. • 7. The mean change from baseline in the MIDAS total score. [Time Frame: baseline to end of Week 12]
# The mean change from baseline in the MIDAS total score at Week 12 of the double-blind treatment phase.
# This pivotal study enrolled patients with both episodic and chronic migraine. The study evaluated the efficacy and safety of rimegepant 75 mg (n=370) dosed every other day for the preventive treatment of migraine in patients versus placebo (n=371) who had migraine for at least one year and 4 to 18 moderate to severe migraine attacks per month over three months prior to enrollment. During the one-month observation period, patients experienced on average 10.7 migraine days per month, with 7.4 migraine days of moderate to severe migraine during the same period.
# [3] = system: patients with moderate to severe intensity migraine; assay: large open-label Phase 2 trial of rimegepant; assay type: in vivo, human
# Source text: The goal of our strategy is to deliver one medication to address patients' needs for treating their migraines.
# [4] = 370 patients, rimegepant 75 mg every other day
# [5] = Severity: Mild, Treated Subjects N = 370
# [6] = Severity: Moderate or Severe, Treated Subjects N = 370
# [7] = Severity: Moderate, Treated Subjects N = 370
# [8] = Severity: Total, Treated Subjects N = 370
structure (smiles),measurement,setting,value
"N[C@@H]1c2cccnc2[C@H](OC(=O)N2CCC(n3c(=O)[nH]c4ncccc43)CC2)CC[C@H]1c1cccc(F)c1F [Rimegepant, [(5S,6S,9R)-5-amino-6-(2,3-difluorophenyl)-6,7,8,9-tetrahydro-5H-cyclohepta[b]pyridin-9-yl] 4-(2-oxo-3H-imidazo[4,5-b]pyridin-1-yl)piperidine-1-carboxylate]",cases of ALT or AST >3×ULN and bilirubin >2×ULN,[1]; [4],no cases
same,independent liver monitoring panel assessment of ALT/AST elevations,[1]; [4],did not determine any ALT/AST elevations to be in the categories of probably or definitely related to study drug
same,safety profile,[1]; [4],consistent with prior clinical trial experience
same,Enterobiasis,[1]; [5],0 n
same,Folliculitis,[1]; [5],0 n
same,Oral candidiasis,[1]; [5],0 n
same,Orchitis,[1]; [5],0 n
same,Otitis media,[1]; [5],0 n
same,Acute sinusitis,[1]; [6],0 n
same,Appendicitis,[1]; [6],0 n
same,Bacterial vaginosis,[1]; [6],0 n
same,Herpes zoster,[1]; [6],0 n
same,Pharyngitis streptococcal,[1]; [6],0 n
same,Pneumonia,[1]; [6],0 n
same,Pyelonephritis,[1]; [6],0 n
same,Sepsis,[1]; [6],0 n
same,Acute sinusitis,[1]; [7],0 n
same,Appendicitis,[1]; [7],0 n
same,Bacterial vaginosis,[1]; [7],0 n
same,Herpes zoster,[1]; [7],0 n
same,Pharyngitis streptococcal,[1]; [7],0 n
same,Sepsis,[1]; [7],0 n
same,Acute sinusitis,[1]; [8],0 n
same,Appendicitis,[1]; [8],0 n
same,Enterobiasis,[1]; [8],0 n
same,Folliculitis,[1]; [8],0 n
same,Oral candidiasis,[1]; [8],0 n
same,Orchitis,[1]; [8],0 n
same,Otitis media,[1]; [8],0 n
same,Pelvic inflammatory disease,[1]; [8],0 n
same,Pertussis,[1]; [8],0 n
same,Pharyngitis streptococcal,[1]; [8],0 n
same,Pneumonia,[1]; [8],0 n
same,Pyelonephritis,[1]; [8],0 n
same,Sepsis,[1]; [8],0 n
same,Tooth infection,[1]; [8],0 n
same,"MSQoL Restrictive Role Function Domain Score Change From Baseline at Week 12, Difference (Rimegepant − Placebo)","[2]; 95% CI (0.23, 6.70), P-value 0.0358",3.5
same,">=50% Reduction in Moderate or Severe Migraine Days per Month in Last Month, Stratified Risk Difference (Rimegepant − Placebo)","[2]; 95% CI (−0.6, 14.1), P-value 0.0734",6.7
same,"Rescue Medication Days per Month in Last Month, Difference (Rimegepant − Placebo)","[2]; 95% CI (−0.80, 0.31), P-value 0.3868",−0.2 Days per Month
same,"Change From OP in Mean Number of Total Migraine Days per Month Overall, Difference (Rimegepant − Placebo)","[2]; 95% CI (−1.23, −0.17), P-value 0.0094",−0.7 Days per Month
same,"Change From OP in Mean Number of Total Migraine Days per Month in Last Month, Difference (Rimegepant − Placebo)","[2]; 95% CI (−1.42, −0.14), P-value 0.0176, significant in hierarchical testing",−0.8 Days per Month
same,"Change From OP in Mean Number of Total Migraine Days per Month In First Month, Difference (Rimegepant − Placebo)","[2]; 95% CI (−1.49, −0.36), P-value 0.0013",−0.9 Days per Month
same,"MIDAS Total Score Change From Baseline at Week 12, Difference (Rimegepant − Placebo)","[2]; 95% CI (−4.74, 4.51), P-value 0.9616",−0.1
same,">=50% Reduction From OP in Mean Number of Moderate or Severe Migraine Days per Month in Last Month, Response Rate (n/N)",[2]; evaluable mITT,167/348
same,"Primary Endpoint: Change From OP in Mean Number of Total Migraine Days per Month in Last Month, Least-squares mean","[2]; evaluable mITT N = 348, 75 mg every other day, 95% CI (−4.95, −3.97)",−4.5 Days per Month
same,"Rescue Medication Days per Month in Last Month, Least-squares mean","[2]; evaluable mITT N = 348, 95% CI (3.29, 4.15)",3.7 Days per Month
same,"Change From OP in Mean Number of Total Migraine Days per Month In First Month, Least-squares mean","[2]; evaluable mITT N = 348, 95% CI (−3.04, −2.17)",−2.6 Days per Month
same,"Change From OP in Mean Number of Total Migraine Days per Month Overall, Least-squares mean","[2]; evaluable mITT N = 348, 95% CI (−3.94, −3.12)",−3.5 Days per Month
same,"MSQoL Restrictive Role Function Domain Score Change From Baseline at Week 12, Least-squares mean","[2]; n 269, 95% CI (15.54, 20.56)",18.0
same,"MIDAS Total Score Change From Baseline at Week 12, Least-squares mean","[2]; n 269, 95% CI (−15.41, −8.21)",−11.8
same,"reduction in mean number of migraine days as compared to placebo, (4.9-3.7)/3.7*100",[2]; participants not taking concomitant preventive treatment,32%
same,reduction from baseline in monthly migraine days,"[2]; rimegepant 75 mg every other day, vs 3.7 day in placebo group, p=0.0176",4.5 days
same,"reduction from baseline in monthly migraine days, participants not taking concomitant preventive treatment","[2]; rimegepant group n=273, vs 3.7 day in placebo group (n=269)",4.9 days
same,">=50% Reduction From OP in Mean Number of Moderate or Severe Migraine Days per Month in Last Month, Stratified Risk","[2]; stratified by prophylactic migraine medication use, 95% CI (42.7, 53.2)",48.0
same,share of group with at least a 50% reduction from baseline in the mean number of moderate to severe migraine days per month,[2]; vs 41% in the placebo group,48%
same,reduction in migraine days per month,[3],≤ 5.3 days
